For the assay, the target named is T1, human PAD4 (Homo sapiens, UniProt Q9UM07).
T1 construct: human PAD4 (NM_012387), A2P663, was PCR amplified; His-SUMO (N, cleaved yes); made in house; host or cells: E. coli BL21(DE3)
T1 sequence (Q9UM07 2-663): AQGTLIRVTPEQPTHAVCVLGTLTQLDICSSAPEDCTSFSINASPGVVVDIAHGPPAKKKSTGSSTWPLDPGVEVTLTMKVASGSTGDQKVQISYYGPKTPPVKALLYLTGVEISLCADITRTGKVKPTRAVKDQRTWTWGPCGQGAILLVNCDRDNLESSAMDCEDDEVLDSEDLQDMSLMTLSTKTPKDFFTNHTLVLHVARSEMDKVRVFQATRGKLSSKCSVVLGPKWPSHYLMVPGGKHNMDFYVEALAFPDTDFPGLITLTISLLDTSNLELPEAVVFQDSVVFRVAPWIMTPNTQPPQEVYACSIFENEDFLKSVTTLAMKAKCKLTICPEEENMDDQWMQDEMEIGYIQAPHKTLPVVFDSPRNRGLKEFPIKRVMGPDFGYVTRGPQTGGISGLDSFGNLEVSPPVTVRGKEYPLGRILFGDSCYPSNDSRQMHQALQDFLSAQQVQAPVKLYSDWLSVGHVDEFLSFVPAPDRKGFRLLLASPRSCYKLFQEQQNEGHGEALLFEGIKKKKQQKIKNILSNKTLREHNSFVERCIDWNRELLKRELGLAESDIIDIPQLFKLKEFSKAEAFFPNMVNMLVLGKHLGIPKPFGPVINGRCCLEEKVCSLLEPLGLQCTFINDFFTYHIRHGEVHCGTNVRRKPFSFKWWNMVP
In words: In vitro PAD4 BAEE biochemical assay. The settings on record: human PAD4, BAEE substrate; 5 nM PAD4, 2 mM calcium chloride, 3 mM BAEE; geometric mean of multiple experiments. As for the experimental part:
The PCR product was ligated into linearized pET-SUMO vector (Invitrogen, Carlsbad, CA), which is part of the Champion™ pET SUMO Protein Expression System. After sequence verification for the correct orientation, the pET-SUMO-hPAD4 expression plasmid was transformed into BL21(DE3) cells.
E. Coli BL21(DE3) cells were inoculated in LB medium with kanamycin at 37° C. until A600 nm reached about 0.5. Protein expression was induced by addition of 0.5 mM IPTG (final) and continued overnight at 16° C. at 220 rpm.
Cells were harvested by centrifugation at 5000 rpm for 10 minutes at 4° C. The pellet was resuspended in 300 ml lysis buffer (20 mM Tris-HCl, pH 8.0, 1 mM EDTA, 500 mM NaCl, 1 mM (tris(2-carboxyethyl)phosphine) (TCEP), 10% glycerol, and 1% Triton X100 and EDTA free protease inhibitor) and lysed by 3× passage through a microfluidizer (Microfluidics, Newton, MA) at 18,000 psi. The cell lysate was clarified by centrifugation at 30,000 rpm for 60 minutes at 4° C. […] Bound protein was eluted with a 0-100% linear gradient of 100 mL Ni-B buffer (Ni A buffer+0.5 M Imidazole).
The protein was then reloaded onto a Ni—HP column for a reverse purification step and recovered in flow through fraction. The protein with His-Sumo tag removed was then polished using a 16/60 Superdex-200 gel filtration column with gel filtration buffer (20 mM Tris pH 8.0, NaCl 400 mM and 1 mM TCEP). The fractions containing the protein were pulled and frozen at −80° C.
The enzymatic activity of human PAD4 was monitored in a biochemical assay in the presence or absence of compounds using the small peptidyl arginine mimic BAEE (Na-Benzoyl-L-arginine ethyl ester hydrochloride) as substrate. PAD4 activity led to deamination of BAEE and release of ammonia. Levels of ammonia were monitored by using an amine coupling reaction and were indicative of PAD4 enzymatic activity.
One hundred nanoliters of test compounds dissolved in DMSO at various concentrations were dispensed into a 384-well black OptiPlate using a Labcyte Echo instrument. Ten microliters of a solution of recombinant PAD4 and calcium chloride diluted in PAD4 assay buffer (50 mM MOPS [3-(N-morpholino) propanesulfonic acid], pH 7.6; 50 mM sodium chloride; 0.05% Tween-20; 2 mM dithiothreitol) was added to the compound-containing plate and was incubated for 30 minutes at 25° C. Ten microliters of a solution of BAEE (Sigma-Aldrich #B4500) diluted in PAD4 assay buffer was then added to start the reaction. Final concentrations were 5 nM PAD4, 2 mM calcium chloride, and 3 mM BAEE. The reaction mixture was incubated at 25° C. for 2 hours and was stopped with the addition of 10 microliters of a solution of 75 mM EDTA (Ethylenediaminetetraacetic acid) in PAD4 assay buffer. Thirty microliters of detection solution (5 mM o-phthalaldehyde, 50 mM MOPS [3-(N-morpholino) propanesulfonic acid], pH 7.6; 50 mM sodium chloride; 0.05% Tween-20; 5 mM dithiothreitol) was then added and the reaction was incubated for 1 hour at 25° C.
In the case of `COc1cc(C(=O)N2[C@H]3CC[C@@H]2[C@H](N)C3)cc2nc(-c3cc4ccc([C@@H](C)NC(=O)C5(C#N)CC5)nc4n3CC3CC3)c(C)n12` [Example 165, ~{N}-[(1~{R})-1-[2-[7-[(1~{R},2~{R},4~{S})-2-amino-7-azabicyclo[2.2.1]heptane-7-carbonyl]-5-methoxy-3-methylimidazo [1,2-a]pyridin-2-yl]-1-(cyclopropylmethyl)pyrrolo [2,3-b]pyridin-6-yl]ethyl]-1-cyanocyclopropane-1-carboxamide], the half-maximal inhibitory concentration (IC50) was found to be 60.5 nM.

For the molecule `COc1cc(C(=O)N2[C@H]3CC[C@@H]2[C@H](N)C3)cc2nc(-c3cc4ccc(C(C)CC(=O)N5CC(F)(F)C5)nc4n3CC3CC3)c(C)n12` (stereo partly drawn) [Example 519, 3-[2-[7-[(1~{R},2~{R}, 4~{S})-2-amino-7-azabicyclo[2.2.1]heptane-7-carbonyl]-5-methoxy-3-methylimidazo[1,2-a]pyridin-2-yl]-1-(cyclopropylmethyl)pyrrolo[2,3-b]pyridin-6-yl]-1-(3,3-difluoroazetidin-1-yl) butan-1-one], the IC50 came to 101 nM.

On to `COc1cc(C(=O)N2[C@H]3CC[C@@H]2[C@H](N)C3)cc2nc(-c3cc4ccc(N5C[C@@H](C)OCS5(=O)=O)nc4n3CC3CC3)c(C)n12` [Example 440, [(1~{R},2~{R},4~{S})-2-amino-7-azabicyclo [2.2.1]heptan-7-yl]-[2-[1-(cyclopropylmethyl)-6-[(6~{R})-6-methyl-3,3-dioxo-1,3,4-oxathiazinan-4-yl]pyrrolo [2,3-b]pyridin-2-yl]-5-methoxy-3-methylimidazo [1,2-a]pyridin-7-yl] methanone], for which the IC50 was found to be 207 nM.

Consider `COc1cc(C(=O)N2[C@H]3CC[C@@H]2[C@H](N)C3)cc2nc(-c3cc4ccc([C@@H](C)NC(=O)c5ccn(C)n5)nc4n3CC3CC3)c(C)n12` [Example 108, ~{N}-[(1~{R})-1-[2-[7-[(1~{R},2~{R},4~{S})-2-amino-7-azabicyclo[2.2.1]heptane-7-carbonyl]-5-methoxy-3-methylimidazo [1,2-a]pyridin-2-yl]-1-(cyclopropylmethyl)pyrrolo [2,3-b]pyridin-6-yl]ethyl]-1-methylpyrazole-3-carboxamide], for which the IC50 came to 52.3 nM.

Take `CCC(C)(O)c1ccc2cc(-c3nc4cc(C(=O)N5[C@H]6CC[C@@H]5[C@H](N)C6)cc(OC)n4c3C)n(CC3CC3)c2n1` (stereo partly drawn) [Example 572, [(1~{R},2~{R},4~{S})-2-amino-7-azabicyclo [2.2.1]heptan-7-yl]-[2-[1-(cyclopropylmethyl)-6-(2-hydroxybutan-2-yl)pyrrolo [2,3-b]pyridin-2-yl]-5-methoxy-3-methylimidazo[1,2-a]pyridin-7-yl]methanone]: the IC50 stood at 152 nM.

Regarding `COc1cc(C(=O)N2CCC[C@@H](N)C2)cc2nc(-c3cc4ccc([C@@H](C)N5CCOC5=O)nc4n3CC3CC3)c(C)n12` [Example 278, 3-[(1~{R})-1-[2-[7-[(3~{R})-3-aminopiperidine-1-carbonyl]-5-methoxy-3-methylimidazo [1,2-a]pyridin-2-yl]-1-(cyclopropylmethyl)pyrrolo [2,3-b]pyridin-6-yl]ethyl]-1,3-oxazolidin-2-one], the IC50 was determined as 144 nM.

In the case of `COc1cc(C(=O)N2CCC[C@@H](N)C2)cc2nc(-c3cc4ccc(C5CC5C(=O)N(C)C)nc4n3CC3CC3)c(C)n12` (stereo partly drawn) [Example 533, 2-[2-[7-[(3~{R})-3-aminopiperidine-1-carbonyl]-5-methoxy-3-methylimidazo[1,2-a]pyridin-2-yl]-1-(cyclopropylmethyl)pyrrolo[2,3-b]pyridin-6-yl]-~{N},~{N}-dimethylcyclopropane-1-carboxamide], the IC50 amounted to 933 nM.

With `CCc1ccc2cc(-c3nc4cc(C(=O)N5[C@H]6CC[C@@H]5[C@H](N)C6)cc(OC)n4c3C)n(CCO)c2n1` [Example 497, [(1~{R},2~{R},4~{S})-2-amino-7-azabicyclo [2.2.1]heptan-7-yl]-[2-[6-ethyl-1-(2-hydroxyethyl)pyrrolo[2,3-b]pyridin-2-yl]-5-methoxy-3-methylimidazo [1,2-a]pyridin-7-yl]methanone], the IC50 was found to be 1230 nM.

`COc1nn(C)cc1C(=O)N[C@H](C)c1ccc2cc(-c3nc4cc(C(=O)N5[C@H]6CC[C@@H]5[C@H](N)C6)cc(OC)n4c3C)n(CC3CC3)c2n1` [Example 26, ~{N}-[(1~{R})-1-[2-[7-[(1~{R},2~{R},4~{S})-2-amino-7-azabicyclo [2.2.1]heptane-7-carbonyl]-5-methoxy-3-methylimidazo [1,2-a]pyridin-2-yl]-1-(cyclopropylmethyl)pyrrolo[2,3-b]pyridin-6-yl]ethyl]-3-methoxy-1-methylpyrazole-4-carboxamide]: the IC50 was determined as 151 nM.

Take `COc1cc(C(=O)N2CC[C@@H](O)[C@@H](N)C2)cc2nc(-c3cc4ccc(N(C(F)F)S(C)(=O)=O)nc4n3CC3CC3)c(C)n12` [Example 348, ~{N}-[2-[7-[(3~{S}, 4~{R})-3-amino-4-hydroxypiperidine-1-carbonyl]-5-methoxy-3-methylimidazo [1,2-a]pyridin-2-yl]-1-(cyclopropylmethyl)pyrrolo[2,3-b]pyridin-6-yl]-~{N}-(difluoromethyl) methanesulfonamide]: the IC50 stood at 144 nM.

Turning to `CCc1ccc2cc(-c3nc4cc(C(=O)N5[C@H]6CC[C@@H]5[C@H](N)C6)cc(OC)n4c3C)[nH]c2n1` [Example 506, [(1~{R},2~{R},4~{S})-2-amino-7-azabicyclo [2.2.1]heptan-7-yl]-[2-(6-ethyl-1~{H}-pyrrolo[2,3-b]pyridin-2-yl)-5-methoxy-3-methylimidazo[1,2-a]pyridin-7-yl]methanone], the IC50 worked out at 42300 nM.

`COc1cc(C(=O)N2[C@H]3CC[C@@H]2[C@H](N)C3)cc2nc(-c3cc4ccc([C@@H](C)NC(=O)C56CC(F)(C5)C6)nc4n3CC3CC3)c(C3CC3)n12` [Example 144, ~{N}-[(1~{R})-1-[2-[7-[(1~{R},2~{R},4~{S})-2-amino-7-azabicyclo[2.2.1]heptane-7-carbonyl]-3-cyclopropyl-5-methoxyimidazo[1,2-a]pyridin-2-yl]-1-(cyclopropylmethyl)pyrrolo [2,3-b]pyridin-6-yl]ethyl]-3-fluorobicyclo[1.1.1]pentane-1-carboxamide]: the IC50 worked out at 130 nM.

Turning to `COc1cc(C(=O)N2[C@H]3CC[C@@H]2[C@H](N)C3)cc2nc(-c3cc4ccc(N(C)S(C)(=O)=O)nc4n3CC3CC3C)c(C)n12` (stereo partly drawn) [Example 490, ~{N}-[2-[7-[(1~{R},2~{R}, 4~{S})-2-amino-7-azabicyclo[2.2.1]heptane-7-carbonyl]-5-methoxy-3-methylimidazo[1,2-a]pyridin-2-yl]-1-[(2-methylcyclopropyl)methyl]pyrrolo[2,3-b]pyridin-6-yl]-~{N}-methylmethanesulfonamide], the IC50 was determined as 75.4 nM.

`COc1cc(C(=O)N2[C@H]3CC[C@@H]2[C@H](N)C3)cc2nc(-c3cc4ccc([C@@H](C)NC(=O)C5CC5)nc4n3CC3CC3)c(C)n12` [Example 78, ~{N}-[(1~{R})-1-[2-[7-[(1~{R},2~{R},4~{S})-2-amino-7-azabicyclo[2.2.1]heptane-7-carbonyl]-5-methoxy-3-methylimidazo [1,2-a]pyridin-2-yl]-1-(cyclopropylmethyl)pyrrolo [2,3-b]pyridin-6-yl]ethyl] cyclopropanecarboxamide]: the IC50 was determined as 41.4 nM.

For `CNC(=O)COc1ccc2cc(-c3nc4cc(C(=O)N5CCC[C@@H](N)C5)cc(OC)n4c3C)n(CC3CC3)c2n1` [Example 622, 2-[2-[7-[(3~{R})-3-aminopiperidine-1-carbonyl]-5-methoxy-3-methylimidazo[1,2-a]pyridin-2-yl]-1-(cyclopropylmethyl)pyrrolo [2,3-b]pyridin-6-yl] oxy-~{N}-methylacetamide], the IC50 was 894 nM.

By IC50 is commonly meant the concentration at which inhibition is half-maximal.
